Key:
Experiment in all cases: Kinase selectivity, scanMAX Kinase assay panel (DiscoverX), % control at 1 uM
Type in all cases: binding
[1] = target: T1, scanMAX Kinase assay panel (Homo sapiens, UniProt O60331); details: PIP5K1C; 1 uM; read-out: Percent Control (%)
T1 construct: purchased DiscoverX
How it was run: (§1)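 1 uM cpd (DMSO) per kinase; % ctrl = [cpd − pos ctrl]/[neg ctrl − pos ctrl] × 100; hit if <35.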

[2] = target: T2, scanMAX Kinase assay panel (Homo sapiens, UniProt O96013); details: PAK4; 1 uM; read-out: Percent Control (%)
T2 construct: purchased DiscoverX
T2 sequence (O96013 whole entry): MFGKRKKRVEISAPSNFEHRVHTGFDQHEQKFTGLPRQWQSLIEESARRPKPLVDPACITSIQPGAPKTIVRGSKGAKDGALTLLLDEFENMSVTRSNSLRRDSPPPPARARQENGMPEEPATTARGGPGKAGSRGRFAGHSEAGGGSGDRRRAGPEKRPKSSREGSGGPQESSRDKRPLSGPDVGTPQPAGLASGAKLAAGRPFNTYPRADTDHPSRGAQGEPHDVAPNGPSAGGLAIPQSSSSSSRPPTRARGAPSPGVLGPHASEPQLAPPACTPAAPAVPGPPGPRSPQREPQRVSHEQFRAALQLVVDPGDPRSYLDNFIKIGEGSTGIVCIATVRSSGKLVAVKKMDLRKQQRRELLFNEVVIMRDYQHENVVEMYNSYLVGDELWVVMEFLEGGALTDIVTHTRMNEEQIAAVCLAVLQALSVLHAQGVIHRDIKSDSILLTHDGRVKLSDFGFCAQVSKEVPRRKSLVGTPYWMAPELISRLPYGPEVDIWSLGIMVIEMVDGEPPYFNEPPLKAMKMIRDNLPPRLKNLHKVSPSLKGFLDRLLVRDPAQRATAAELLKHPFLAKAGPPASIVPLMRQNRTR
How it was run: as §1

[3] = target: T3, scanMAX Kinase assay panel (Homo sapiens, UniProt P07332); details: FES; 1 uM; read-out: Percent Control (%)
T3 construct: purchased DiscoverX
T3 sequence (P07332 whole entry): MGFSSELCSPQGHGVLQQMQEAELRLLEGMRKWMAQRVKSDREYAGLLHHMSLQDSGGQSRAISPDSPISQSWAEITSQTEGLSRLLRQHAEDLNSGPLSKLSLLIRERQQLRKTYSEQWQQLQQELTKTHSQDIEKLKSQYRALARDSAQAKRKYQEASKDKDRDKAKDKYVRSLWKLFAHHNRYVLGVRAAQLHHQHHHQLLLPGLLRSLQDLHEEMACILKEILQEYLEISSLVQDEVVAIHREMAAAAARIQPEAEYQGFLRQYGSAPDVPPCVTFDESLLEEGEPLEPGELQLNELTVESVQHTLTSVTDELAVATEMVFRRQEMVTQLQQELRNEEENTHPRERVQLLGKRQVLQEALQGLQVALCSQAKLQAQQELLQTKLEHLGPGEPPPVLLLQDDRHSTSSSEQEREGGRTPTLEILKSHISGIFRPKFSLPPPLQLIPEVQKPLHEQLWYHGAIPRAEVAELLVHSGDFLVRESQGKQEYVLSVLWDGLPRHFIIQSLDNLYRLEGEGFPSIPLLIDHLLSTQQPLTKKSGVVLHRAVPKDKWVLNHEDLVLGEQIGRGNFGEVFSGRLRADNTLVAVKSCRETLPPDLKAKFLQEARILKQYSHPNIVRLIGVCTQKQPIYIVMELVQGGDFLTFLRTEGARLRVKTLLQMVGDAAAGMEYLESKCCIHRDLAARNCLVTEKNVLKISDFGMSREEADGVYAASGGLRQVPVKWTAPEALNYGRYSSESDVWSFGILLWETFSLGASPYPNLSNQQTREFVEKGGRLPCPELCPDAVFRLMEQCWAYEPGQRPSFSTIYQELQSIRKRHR
How it was run: as §1

[4] = target: T4, scanMAX Kinase assay panel (Homo sapiens, UniProt P25098); details: GRK2; 1 uM; read-out: Percent Control (%)
T4 construct: purchased DiscoverX
T4 sequence (P25098 1-689): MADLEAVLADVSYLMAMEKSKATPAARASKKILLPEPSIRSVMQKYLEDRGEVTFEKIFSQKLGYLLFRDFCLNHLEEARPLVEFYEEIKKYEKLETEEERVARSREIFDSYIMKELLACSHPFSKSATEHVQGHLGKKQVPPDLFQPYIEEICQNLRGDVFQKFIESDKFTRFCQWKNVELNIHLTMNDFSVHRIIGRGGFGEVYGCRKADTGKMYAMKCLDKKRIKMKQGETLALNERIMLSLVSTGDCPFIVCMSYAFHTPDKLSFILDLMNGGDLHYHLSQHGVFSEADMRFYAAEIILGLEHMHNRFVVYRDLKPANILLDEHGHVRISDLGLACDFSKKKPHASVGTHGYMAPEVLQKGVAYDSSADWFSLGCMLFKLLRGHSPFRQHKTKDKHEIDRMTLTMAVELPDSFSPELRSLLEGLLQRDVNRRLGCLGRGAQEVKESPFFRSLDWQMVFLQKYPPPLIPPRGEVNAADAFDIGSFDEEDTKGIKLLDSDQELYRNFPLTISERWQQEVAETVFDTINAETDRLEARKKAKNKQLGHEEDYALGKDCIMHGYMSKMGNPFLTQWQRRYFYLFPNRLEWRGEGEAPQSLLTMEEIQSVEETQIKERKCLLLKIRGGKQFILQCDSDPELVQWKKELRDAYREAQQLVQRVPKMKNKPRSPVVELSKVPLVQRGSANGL
How it was run: as §1

[5] = target: T5, scanMAX Kinase assay panel (Homo sapiens, UniProt P36888, D835V); details: FLT3 (D835V); 1 uM; read-out: Percent Control (%)
T5 construct: purchased DiscoverX
T5 sequence (P36888 27-993 D835V): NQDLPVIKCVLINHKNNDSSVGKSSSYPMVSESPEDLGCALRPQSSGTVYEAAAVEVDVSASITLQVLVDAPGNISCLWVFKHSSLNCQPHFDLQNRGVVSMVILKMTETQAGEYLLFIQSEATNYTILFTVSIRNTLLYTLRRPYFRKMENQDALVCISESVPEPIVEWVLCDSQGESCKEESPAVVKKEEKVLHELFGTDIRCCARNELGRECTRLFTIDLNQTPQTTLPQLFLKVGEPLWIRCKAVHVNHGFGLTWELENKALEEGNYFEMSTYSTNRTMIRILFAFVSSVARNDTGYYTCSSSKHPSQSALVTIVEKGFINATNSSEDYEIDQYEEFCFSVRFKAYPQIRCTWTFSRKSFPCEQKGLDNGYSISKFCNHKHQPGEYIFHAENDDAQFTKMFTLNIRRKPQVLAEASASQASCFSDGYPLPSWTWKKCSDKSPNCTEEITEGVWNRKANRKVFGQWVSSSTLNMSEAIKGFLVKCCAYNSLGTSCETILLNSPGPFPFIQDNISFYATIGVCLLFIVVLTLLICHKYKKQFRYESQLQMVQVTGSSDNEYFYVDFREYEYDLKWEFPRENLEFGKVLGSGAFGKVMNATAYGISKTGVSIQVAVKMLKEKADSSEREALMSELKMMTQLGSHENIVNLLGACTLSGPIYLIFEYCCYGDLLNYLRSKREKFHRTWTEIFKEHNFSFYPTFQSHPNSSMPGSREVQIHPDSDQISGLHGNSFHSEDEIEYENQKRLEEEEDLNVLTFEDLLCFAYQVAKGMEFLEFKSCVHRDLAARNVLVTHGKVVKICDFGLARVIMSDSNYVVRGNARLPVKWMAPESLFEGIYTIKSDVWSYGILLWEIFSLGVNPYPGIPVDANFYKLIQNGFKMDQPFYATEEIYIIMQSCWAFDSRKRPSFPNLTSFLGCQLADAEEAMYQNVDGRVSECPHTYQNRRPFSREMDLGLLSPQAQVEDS
How it was run: as §1

[6] = target: T6, scanMAX Kinase assay panel (Homo sapiens, UniProt P54756); details: EPHA5; 1 uM; read-out: Percent Control (%)
T6 construct: purchased DiscoverX
T6 sequence (P54756 25-1037): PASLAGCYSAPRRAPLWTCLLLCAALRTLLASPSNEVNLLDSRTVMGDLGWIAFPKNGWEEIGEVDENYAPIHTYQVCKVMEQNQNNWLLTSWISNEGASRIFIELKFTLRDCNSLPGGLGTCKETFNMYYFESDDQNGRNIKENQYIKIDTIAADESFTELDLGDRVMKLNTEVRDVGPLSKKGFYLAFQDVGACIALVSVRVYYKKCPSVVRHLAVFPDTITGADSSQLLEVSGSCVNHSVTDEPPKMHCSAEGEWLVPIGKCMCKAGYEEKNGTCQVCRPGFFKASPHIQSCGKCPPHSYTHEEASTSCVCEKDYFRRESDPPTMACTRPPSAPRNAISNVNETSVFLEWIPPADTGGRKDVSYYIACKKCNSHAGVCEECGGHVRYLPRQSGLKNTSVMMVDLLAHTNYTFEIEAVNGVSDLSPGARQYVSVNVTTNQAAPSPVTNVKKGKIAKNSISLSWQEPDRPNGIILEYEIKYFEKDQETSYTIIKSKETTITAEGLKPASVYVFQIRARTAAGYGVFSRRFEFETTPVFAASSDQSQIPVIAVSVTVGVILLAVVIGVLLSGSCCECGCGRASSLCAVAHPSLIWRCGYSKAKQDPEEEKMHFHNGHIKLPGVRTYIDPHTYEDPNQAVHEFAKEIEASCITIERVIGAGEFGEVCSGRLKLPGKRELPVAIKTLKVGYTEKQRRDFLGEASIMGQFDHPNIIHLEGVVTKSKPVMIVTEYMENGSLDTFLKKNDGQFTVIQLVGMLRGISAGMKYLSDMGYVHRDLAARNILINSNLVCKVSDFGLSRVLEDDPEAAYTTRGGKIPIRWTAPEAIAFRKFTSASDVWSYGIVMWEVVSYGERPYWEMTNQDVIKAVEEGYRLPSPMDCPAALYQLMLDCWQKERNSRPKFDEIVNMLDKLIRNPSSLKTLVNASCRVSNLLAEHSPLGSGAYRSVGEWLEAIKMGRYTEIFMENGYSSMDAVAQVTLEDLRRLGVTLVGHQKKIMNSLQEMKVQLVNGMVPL
How it was run: as §1

[7] = target: T7, scanMAX Kinase assay panel (Homo sapiens, UniProt Q86UE8); details: TLK2; 1 uM; read-out: Percent Control (%)
T7 construct: purchased DiscoverX
T7 sequence (Q86UE8 whole entry): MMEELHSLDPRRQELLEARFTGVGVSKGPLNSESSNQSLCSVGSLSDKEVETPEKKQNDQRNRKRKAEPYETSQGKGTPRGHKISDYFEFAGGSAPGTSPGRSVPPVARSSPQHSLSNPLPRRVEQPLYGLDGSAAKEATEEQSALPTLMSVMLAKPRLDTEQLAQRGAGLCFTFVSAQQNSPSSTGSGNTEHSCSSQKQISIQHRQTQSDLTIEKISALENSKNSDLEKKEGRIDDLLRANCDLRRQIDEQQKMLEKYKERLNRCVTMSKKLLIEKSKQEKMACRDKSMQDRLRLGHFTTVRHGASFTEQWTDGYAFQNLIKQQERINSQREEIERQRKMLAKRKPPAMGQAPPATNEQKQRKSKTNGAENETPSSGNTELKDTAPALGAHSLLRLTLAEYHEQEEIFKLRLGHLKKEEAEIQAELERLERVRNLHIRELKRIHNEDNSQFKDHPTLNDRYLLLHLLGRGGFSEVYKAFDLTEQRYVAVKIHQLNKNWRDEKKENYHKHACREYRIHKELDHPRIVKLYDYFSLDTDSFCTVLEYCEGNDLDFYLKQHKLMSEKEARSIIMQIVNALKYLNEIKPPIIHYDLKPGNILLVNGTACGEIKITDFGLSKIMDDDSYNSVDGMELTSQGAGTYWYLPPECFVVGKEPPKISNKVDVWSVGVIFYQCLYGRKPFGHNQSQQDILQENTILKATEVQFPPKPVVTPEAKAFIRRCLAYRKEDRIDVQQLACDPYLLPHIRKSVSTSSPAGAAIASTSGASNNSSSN
How it was run: as §1

[8] = target: T8, scanMAX Kinase assay panel (Homo sapiens, UniProt Q9H4B4); details: PLK3; 1 uM; read-out: Percent Control (%)
T8 construct: purchased DiscoverX
T8 sequence (Q9H4B4 whole entry): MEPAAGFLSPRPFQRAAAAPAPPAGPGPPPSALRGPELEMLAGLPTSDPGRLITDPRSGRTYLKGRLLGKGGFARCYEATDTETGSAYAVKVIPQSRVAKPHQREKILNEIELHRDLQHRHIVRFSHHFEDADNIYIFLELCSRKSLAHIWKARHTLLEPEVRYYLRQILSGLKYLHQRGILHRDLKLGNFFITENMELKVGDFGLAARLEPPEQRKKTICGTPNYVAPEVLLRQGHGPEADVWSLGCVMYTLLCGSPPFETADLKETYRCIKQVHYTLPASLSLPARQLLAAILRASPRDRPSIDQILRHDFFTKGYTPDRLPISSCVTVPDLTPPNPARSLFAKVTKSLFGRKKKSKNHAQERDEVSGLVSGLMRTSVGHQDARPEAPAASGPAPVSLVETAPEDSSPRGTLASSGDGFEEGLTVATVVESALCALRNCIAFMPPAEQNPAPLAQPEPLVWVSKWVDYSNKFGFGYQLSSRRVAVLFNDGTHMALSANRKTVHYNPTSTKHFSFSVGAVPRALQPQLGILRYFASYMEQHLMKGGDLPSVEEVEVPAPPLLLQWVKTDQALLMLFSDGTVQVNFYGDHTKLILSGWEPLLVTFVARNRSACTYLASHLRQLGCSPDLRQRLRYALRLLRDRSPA
How it was run: as §1

[9] = target: T9, scanMAX Kinase assay panel (Homo sapiens, UniProt Q9HAZ1); details: CLK4; 1 uM; read-out: Percent Control (%)
T9 construct: purchased DiscoverX
T9 sequence (Q9HAZ1 whole entry): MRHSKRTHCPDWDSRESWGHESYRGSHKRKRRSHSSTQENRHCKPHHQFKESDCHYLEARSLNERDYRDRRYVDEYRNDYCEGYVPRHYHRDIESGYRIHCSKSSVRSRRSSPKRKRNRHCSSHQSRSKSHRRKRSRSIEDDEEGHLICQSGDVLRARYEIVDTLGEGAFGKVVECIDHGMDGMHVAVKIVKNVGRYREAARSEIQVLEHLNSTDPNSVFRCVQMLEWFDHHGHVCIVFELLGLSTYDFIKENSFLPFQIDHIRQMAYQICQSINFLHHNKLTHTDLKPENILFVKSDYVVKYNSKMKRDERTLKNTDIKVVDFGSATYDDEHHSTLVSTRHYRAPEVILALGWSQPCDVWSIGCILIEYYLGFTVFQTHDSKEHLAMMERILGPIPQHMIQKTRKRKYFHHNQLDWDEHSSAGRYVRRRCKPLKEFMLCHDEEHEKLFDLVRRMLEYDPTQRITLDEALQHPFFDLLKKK
How it was run: as §1

T1 sequence (O60331 whole entry): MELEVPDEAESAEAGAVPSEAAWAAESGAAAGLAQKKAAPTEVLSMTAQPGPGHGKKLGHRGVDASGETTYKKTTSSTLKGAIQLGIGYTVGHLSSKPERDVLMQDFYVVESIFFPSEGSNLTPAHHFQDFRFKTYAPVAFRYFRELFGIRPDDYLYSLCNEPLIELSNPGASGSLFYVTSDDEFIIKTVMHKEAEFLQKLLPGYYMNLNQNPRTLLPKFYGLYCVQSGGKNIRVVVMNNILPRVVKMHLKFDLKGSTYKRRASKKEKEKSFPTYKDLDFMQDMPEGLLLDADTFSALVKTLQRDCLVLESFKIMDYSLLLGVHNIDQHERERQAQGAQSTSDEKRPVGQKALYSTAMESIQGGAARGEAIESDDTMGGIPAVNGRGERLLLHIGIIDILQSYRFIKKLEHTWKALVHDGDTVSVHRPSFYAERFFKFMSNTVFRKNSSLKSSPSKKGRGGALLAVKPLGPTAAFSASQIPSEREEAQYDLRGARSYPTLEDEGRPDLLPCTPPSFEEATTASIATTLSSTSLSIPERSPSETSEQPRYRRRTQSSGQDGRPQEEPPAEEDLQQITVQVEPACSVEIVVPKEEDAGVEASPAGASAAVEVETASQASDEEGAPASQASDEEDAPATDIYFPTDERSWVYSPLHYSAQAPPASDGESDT

Cc1ccc(C(=O)Nc2ccc(CN3CCN(C)CC3)c(C(F)(F)F)c2)cc1C#Cc1cnc2c(Nc3cnn(C)c3)cccn12 [Example 1, 4-methyl-3-((8-((1-methyl-1H-pyrazol-4-yl)amino)imidazo[1,2-a]pyridin-3-yl)ethynyl)-N-(4-((4-methylpiperazin-1-yl)methyl)-3-(trifluoromethyl)phenyl)benzamide]
remaining binding at 1 µM [1]: 88% | remaining binding at 1 µM [2]: 85% | remaining binding at 1 µM [3]: 0% | remaining binding at 1 µM [4]: 84% | remaining binding at 1 µM [5]: 0% | remaining binding at 1 µM [6]: 1% | remaining binding at 1 µM [7]: 86% | remaining binding at 1 µM [8]: 77% | remaining binding at 1 µM [9]: 10%

Cc1cn(-c2cc(NC(=O)c3ccc(C)c(C#Cc4cnc5c(Nc6cnn(C)c6)cccn45)c3)cc(C(F)(F)F)c2)cn1 [Example 12, 4-methyl-N-(3-(4-methyl-1H-imidazol-1-yl)-5-(trifluoromethyl)phenyl)-3-((8-((1-methyl-1H-pyrazol-4-yl)amino)imidazo[1,2-a]pyridin-3-yl)ethynyl)benzamide]
remaining binding at 1 µM [1]: 71% | remaining binding at 1 µM [2]: 98% | remaining binding at 1 µM [3]: 6% | remaining binding at 1 µM [4]: 100% | remaining binding at 1 µM [5]: 27% | remaining binding at 1 µM [6]: 31% | remaining binding at 1 µM [7]: 97% | remaining binding at 1 µM [8]: 100% | remaining binding at 1 µM [9]: 100%

Cc1ccc(NC(=O)C2(C(=O)Nc3ccc(F)cc3)CC2)cc1C#Cc1cnc2c(Nc3cnn(C(C)C)c3)cccn12 [Example 78]
remaining binding at 1 µM [1]: 92% | remaining binding at 1 µM [2]: 100% | remaining binding at 1 µM [3]: 100% | remaining binding at 1 µM [4]: 96% | remaining binding at 1 µM [5]: 87% | remaining binding at 1 µM [6]: 100% | remaining binding at 1 µM [7]: 100% | remaining binding at 1 µM [8]: 92% | remaining binding at 1 µM [9]: 100%

Source: patent US10870647B2, “Imidazopyridine derivative, method for preparing same, and pharmaceutical composition containing same as active ingredient for preventing or treating cancer” (DAEGU-GYEONGBUK MEDICAL INNOVATION FOUNDATION, priority 2016, dated 2020)
